Measurements reported in patent US8119674B2, “4-phenylimidazole-2-thione tyrosinase inhibitors and pharmaceutical/cosmetic applications thereof” (Galderma Research & Development, priority 2007, dated 2012).

Target: T1, tyrosinase (Mus musculus, UniProt P11344)
T1 construct: the supernatant obtained constitutes the cell lysate used as tyrosinase source in the enzymatic assay; endogenous in cells; host or cells: B16F1 murine melanoma cells, cultured with alpha-MSH; detergent/ultrasound lysate supernatant
T1 sequence (P11344 19-533): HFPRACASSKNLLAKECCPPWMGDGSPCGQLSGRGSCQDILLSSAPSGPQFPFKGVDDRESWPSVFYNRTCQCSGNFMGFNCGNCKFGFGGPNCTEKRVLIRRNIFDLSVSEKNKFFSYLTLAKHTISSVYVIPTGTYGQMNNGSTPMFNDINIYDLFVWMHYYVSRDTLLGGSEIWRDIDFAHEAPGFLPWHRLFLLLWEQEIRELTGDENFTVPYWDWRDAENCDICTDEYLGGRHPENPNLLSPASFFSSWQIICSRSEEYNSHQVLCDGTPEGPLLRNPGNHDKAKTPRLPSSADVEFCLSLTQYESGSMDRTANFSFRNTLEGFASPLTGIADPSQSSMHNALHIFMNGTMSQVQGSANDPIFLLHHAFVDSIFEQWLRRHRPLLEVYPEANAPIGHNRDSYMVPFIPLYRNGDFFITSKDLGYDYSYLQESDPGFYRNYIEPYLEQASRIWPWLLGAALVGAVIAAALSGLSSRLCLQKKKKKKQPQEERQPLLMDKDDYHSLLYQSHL
Assay: Tyrosinase activity inhibition assay (B16F1 cell lysate, L-tyrosine substrate, MBTH, absorbance at 520 nm)
Type: biochemical
Conditions: lysate of B16F1 cells (murine melanoma line) as tyrosinase source; 37° C., reading at 520 nm after 6 hours; read-out: Tyrosine hydroxylase/Dopa oxidase IC50
Description: The activity of the inhibitors is measured starting from a lysate of B16F1 cells (murine melanoma line). In the presence of the L-tyrosine substrate, the tyrosinase present in these cells catalyses the hydroxylation of L-tyrosine to give L-DOPA and then the oxidation of the L-DOPA to give dopaquinone. In the presence of MBTH (3-methyl-2-benzothiazolinone hydrazone), the dopaquinone is trapped so as to form a pink complex which absorbs at 520 nm.
The B16F1 cells are cultured in DMEM medium+10% foetal calf serum+10^−9 M α-MSH for 4 days at 37° C. under 7% CO2. They are treated with trypsin, washed with PBS, counted and pelleted. The pellet is taken up at 10^7 cells/ml in lysis buffer (10 mM sodium phosphate, pH 6.8-1% Igepal) and the suspension is treated with ultrasound for 10 seconds. After centrifugation for 30 minutes at 4000 rpm, the supernatant obtained constitutes the cell lysate used as tyrosinase source in the enzymatic assay.
The assays are carried out in duplicate in 384-well plates in a total volume of 50 μl. Each well contains:
40 μl of solution containing 1.25 mM L-tyrosine, 6.25 μM L-DOPA (cofactor) and 3.75 mM MBTH in buffer B (62.25 mM sodium phosphate, pH 6.8-2.5% dimethylformamide),
5 μl of inhibitor diluted in DMSO,
5 μl of cell lysate diluted to ½ in 50 mM Tris HCl buffer, pH 7.5.
The plate is incubated at 37° C. and a spectrophotometric reading is carried out at 520 nm after incubating for 6 hours. To avoid any possible absorption of the products, the system uses corrected absorbance (absorbance at time 6 h−absorbance at time zero).
The inhibitors are assayed in terms of dose-response so as to calculate an IC50 (dose which inhibits 50% of the enzymatic activity).
Several internal controls are added to each experiment:
control for 100% activity: the 5 μl of inhibitor are replaced with 5 μl of DMSO,
control for 50% activity: the 5 μl of inhibitor are replaced with 5 μl of phenylthiourea at 300 μM in DMSO,
control for 0% activity: the L-tyrosine substrate is replaced with buffer B.

With `O=C(O)c1ccc(-c2c[nH]c(=S)[nH]2)cc1` [Compound 3, 4-(4-Carboxyphenyl)-1,3-dihydroimidazole-2-thione] the IC50 was 200 nM.

With `OCc1ccc(-c2c[nH]c(=S)[nH]2)cc1` [Compound 7, 4-(4-(Hydroxymethyl)phenyl)-1,3-dihydroimidazole-2-thione] the IC50 was 300 nM.

Work on `FC(F)Oc1ccc(-c2c[nH]c(=S)[nH]2)cc1` [Compound 9, 4-(4-(Difluoromethoxy)phenyl)-1,3-dihydroimidazole-2-thione] yielded an IC50 of 400 nM.

`COc1cccc(-c2c[nH]c(=S)[nH]2)c1` [Compound 11, 4-(3-Methoxyphenyl)-1,3-dihydroimidazole-2-thione] gave an IC50 of 1400 nM.
